Reference: US12630520B2, “Left-handed bicyclic morpholine and salt thereof, preparation method therefor, pharmaceutical composition, and use” (Institute of Materia Medica, Chinese Academy of Medical …, priority 2019, dated 2026)

Experiments:
[1] = test system: ethionine-induced non-alcoholic fatty liver; experiment: Ethionine-induced mouse non-alcoholic fatty liver model; type: in vivo; conditions: for TC (mmol/gprot): mouse liver tissue cholesterol; for TC (mmol/gprot) / TG (mmol/gprot): 200 mg/kg intragastric once a day x3, 250 mg/kg ethionine; for TG (mmol/gprot): mouse liver tissue triglyceride; for Percent TG reduction (%) / TC reduction percent (%): mouse liver tissue, 200 mg/kg, versus model group
Procedure: 1. Method for Establishment of an Ethionine-Induced Mouse Non-Alcoholic Fatty Liver Model and Method of Administration SPF-grade male ICR mice (20-22 g), after acclimatization, were randomly divided into 5 groups: a blank control group, an ethionine-induced model group, a 200 mg/kg (+)IMM-H014 group, a 200 mg/kg (−)IMM-H014 group, and a 200 mg/kg (±)IMM-H014 group, 5 mice in each group. Three days before the establishment of the models, each administration group was intragastrically administrated once per day, and it was totally administrated three times. The animals in the blank control group and the model group were intragastrically administrated with the same dose of physiological saline. Each administration dose was 10 mL/kg. One hour after the last administration, the mice in each group were intragastrically administrated with 250 mg/kg ethionine once. The administration dose was 20 ml/kg. The mice were in fasting but not in water deprivation for 24 h and then the animals waited for further treatment. 2. Determinations of the Contents of Triglyceride and Cholesterol in Liver Tissues The mice were subjected to thoracotomy to take out the livers which were washed with physiological saline at 4° C. A part of the liver tissues were prepared into a 10% liver tissue homogenate with a lysate and an electric homogenizer, wherein one part was measured according to the measurement methods of a triglyceride kit and a cholesterol kit to determine the triglyceride and cholesterol therein, and the other part was measured with a BCA protein quantification kit to determine the content of proteins therein. The triglyceride and cholesterol in the liver tissues were subjected to protein corrections. By adopting SPSS software, the data each were presented as a number mean±standard deviation (x±SD).

[2] = test system: ConA-induced acute immune liver injuries; experiment: ConA-induced mouse acute immune liver injury model; type: in vivo; conditions: mouse serum; for ALT (U/L) / AST (U/L) / LDH (U/L): 200 mg/kg intragastric once a day x3, 20 mg/kg ConA tail vein, n = 10; for ALT reduction percent (%) / AST reduction percent (%) / LDH reduction percent (%): 200 mg/kg, versus ConA model group
Procedure: 1. Method for Establishment of a ConA-Induced Mouse Acute Immune Liver Injury Model and Method of Administration SPF-grade male ICR mice (20-22 g), after acclimatization, were randomly divided into 5 groups: a blank control group, a ConA-induced model group, a 200 mg/kg (+)IMM-H014 group, a 200 mg/kg (−)IMM-H014 group, and a 200 mg/kg (±)IMM-H014 group, 10 mice in each group. Each administration group was intragastrically administrated once a day, and it was totally administrated three times. The blank control group and the model group were intragastrically administrated with the same dose of physiological saline. At 2 hours after the last administration, the mice in each group except the blank control group, were injected once with 20 mg/kg ConA in the tail vein, and each administration dose was 10 ml/kg. The mice were in fasting but not in water deprivation for 16 h and then the animals waited for further treatment. 2. Determination of Biochemical Indexes The mice were decapitated and blood was taken, and the blood samples were kept still at room temperature for 2 h and centrifuged at 4000 rpm for 10 min, to separate the serum. The ALT, AST and LDH contents in the serum were detected with a full-automatic biochemical analyzer. The data each were presented as a number mean±standard deviation (x±SD).

Structure (SMILES) | TC (mmol/gprot) [1] | TG (mmol/gprot) [1] | Percent TG reduction (%) [1] | TC reduction percent (%) [1] | ALT (U/L) [2] | AST (U/L) [2] | LDH (U/L) [2] | ALT reduction percent (%) [2] | AST reduction percent (%) [2] | LDH reduction percent (%) [2] | Percent TG reduction (%) ([1]; listed as (−) IMM-H014, 200 mg/kg)
COC(=O)c1cc(OC)c2c(c1-c1c(CN3CCOCC3)cc(OC)c3c1OCO3)OCO2 (racemic) [(±)IMM-H014] | 0.063 ± 0.013 mmol/gprot | 0.110 ± 0.005 mmol/gprot | 56.6% | 30.0% | 107.0 ± 108.7 U/L | 725.0 ± 417.3 U/L | 3466.7 ± 1772.4 U/L | 88.6% | 22.2% | 6.4% | 
COC(=O)c1cc(OC)c2c(c1-c1c(CN3CCOCC3)cc(OC)c3c1OCO3)OCO2 [(+)IMM-H014] | 0.065 ± 0.022 mmol/gprot | 0.235 ± 0.070 mmol/gprot | 7.1% | 27.2% | 44.4 ± 29.1 U/L | 514.3 ± 310.7 U/L | 2680.0 ± 1190.8 U/L | 95.3% | 44.8% | 27.6% | 
COC(=O)c1cc(OC)c2c(c1-c1c(CN3CCOCC3)cc(OC)c3c1OCO3)OCO2 [(−)IMM-H014] | 0.061 ± 0.013 mmol/gprot | 0.154 ± 0.040 mmol/gprot | 39.0% | 32.4% | 25.6 ± 17.4^###& U/L | 252.9 ± 233.5^##& U/L | 1690.0 ± 929.3^##& U/L | 97.3% | 72.9% | 54.4% | 39.0%
